Measured values reported in US8580833B2, “Substituted imidazole derivatives and methods of use thereof” (TransTech Pharma, Inc., priority 2009, dated 2013).
Where a name gives a salt, the structure may show the parent alone. Read-outs that look alike come from different tables or passages of the source.

Legend:
[1] = molecular target: T1, RAGE (sRAGE) with β-amyloid as the RAGE ligand (Homo sapiens, UniProt Q15109); assay: ELISA: inhibition of sRAGE binding to plate-bound β-amyloid; conditions: sRAGE 6 nM, hydrochloride salt form
T1 construct: generate soluble RAGE (sRAGE) comprised of the V and C domains
Method: (§1) The following assay method may be used to identify compounds of Formula (I) or pharmaceutically acceptable salts thereof which are useful as inhibitors of binding of physiological RAGE ligands, such as S100b and β-amyloid, to RAGE.
(§2) S100b, β-amyloid, or CML (500 ng/100 μL/well) in 100 mM sodium bicarbonate/sodium carbonate buffer (pH 9.8) is loaded onto the wells of a NUNC Maxisorp flat bottom 96-well microtitre plate. The plate is incubated at 4° C. overnight. The wells are aspirated and treated with 50 mM imidazole buffer saline (pH 7.2) (with 5 mM CaCl2/MgCl2) containing 1% bovine serum albumin (BSA) (300 μL/well) for 1 h at RT. The wells are aspirated.
(§3) Test compounds are dissolved in nanopure water (concentration: 10-100 μM). DMSO may be used as co-solvent. 25 μL of test compound solution in 4% DMSO is added, along with 75 μL sRAGE (6 nM FAC) to each well and samples are incubated for 1 h at 37° C. The wells are washed several times with 155 mM NaCl pH 7.2 buffer saline and are soaked for several seconds between each wash.
(§4) Non-radioactive detection is performed by adding:
(§5) 10 μL Biotinylated goat F(ab′)2 Anti-mouse IgG. (8.0×10-4 mg/mL, FAC), 5 μL Alk-phos-Streptavidin (3×10-3 mg/mL FAC), 0.42 μL per 5 mL Monoclonal antibody for sRAGE (FAC 6.0×10-3 mg/mL) to 5 mL 50 mM imidazole buffer saline (pH 7.2) containing 0.2% bovine serum albumin and 5 mM CaCl2. The mixture is incubated for 30 minutes at RT.
(§6) 100 μL of complex is added to each well and incubation is allowed to proceed at rt for 1 h. Wells are washed several times with wash buffer and soaked several seconds between each wash. 100 μL 1 mg/mL (pNPP) in 1 M diethanolamine (pH adjusted to 9.8 with HCl) is added. Color is allowed to develop in the dark for 30 min to 1 h at rt. The reaction is quenched with 10 μL of stop solution (0.5-1.0 N NaOH in 50% ethanol) and the absorbance is measured spectrophotometrically with a microplate reader at 405 nm.
(§7) IC50 (μM) of in the ELISA assay represents the concentration of compound at which 50% signal has been inhibited.

[2] = molecular target: T2, RAGE (sRAGE) with S100b as the RAGE ligand (Homo sapiens, UniProt Q15109); assay: ELISA: inhibition of sRAGE binding to plate-bound S100b; conditions: sRAGE 6 nM, hydrochloride salt form
T2 construct: generate soluble RAGE (sRAGE) comprised of the V and C domains
Method: as §1, §2, §3, §4, §5, §6, §7

[3] = Pharmacokinetic screening in rats, brain and plasma concentrations at 6 hour time point; type: in vivo; conditions: male, Sprague Dawley, rat, 5 mg/kg oral (PO), 6 hour time point; for concentration at 6 h: 2% Tween 80 in distilled water; for Kp at 6 h: brain/plasma ratio, read-out: B/P Ratio
Method: Pharmacokinetic screening in rats was performed on various compounds to measure brain and plasma concentrations at 6 hour time point.
The parameters for the pharmacokinetic protocol were as follows.
Amount of compound: 5 mg/kg
Species: Rat; Strain: Sprague Dawley; Sex: Male
Average body weight at dose: weight ranged from 271 to 423 grams
Average age at dose: age ranged from 9 to 14 weeks
Diet Status Overnight fasting
Number of Animals (n) for each time point: 2
Formulation: 2% Tween 80 in distilled water
Each formulation was administered once by oral gavage. The dose volume was 5 mL/kg for all animals. The actual volume administered to each animal was calculated and adjusted based on the most recent body weight.
Blood samples (approximately 300 μL whole blood) at (1, 2, and 4 h) was collected from each animal via tail vein except for terminal blood samples. Terminal blood (6 h) samples were collected via cardiac puncture. All samples were collected into tubes containing lithium heparin (Multivette 600 LH-Gel, Sarstedt, Newton, N.C., USA). Following collection, the tubes were placed in refrigerator (maximum 30 minutes) or until centrifugation under refrigeration (at 2 to 8° C.) at 1500 g for approximately 15 minutes. Each harvested plasma sample was then transferred into 1.2 mL polypropylene tubes, on the 96-Well Plate according to the 96-Well Plate plasma sample map and kept in freezer. Plasma samples were then analyzed for test substances.
Brain samples were collected immediately after the animals were euthanized at designated time points. Brain samples were rinsed with saline, blotted dry, and weighed. Brain samples were placed into individual containers and kept in freezer (−20° C.). Brain samples were then analyzed for test articles.
After analysis, all the plasma results are reported as ng/mL and brain sample results are reported as ng/g. In the table below, “ND” stands for not determined and “NA” stands for not applicable.

[4] = brain, read-out: Brain concentration
[5] = plasma, read-out: Plasma concentration

T2 sequence (Q15109 23-342 limits assumed): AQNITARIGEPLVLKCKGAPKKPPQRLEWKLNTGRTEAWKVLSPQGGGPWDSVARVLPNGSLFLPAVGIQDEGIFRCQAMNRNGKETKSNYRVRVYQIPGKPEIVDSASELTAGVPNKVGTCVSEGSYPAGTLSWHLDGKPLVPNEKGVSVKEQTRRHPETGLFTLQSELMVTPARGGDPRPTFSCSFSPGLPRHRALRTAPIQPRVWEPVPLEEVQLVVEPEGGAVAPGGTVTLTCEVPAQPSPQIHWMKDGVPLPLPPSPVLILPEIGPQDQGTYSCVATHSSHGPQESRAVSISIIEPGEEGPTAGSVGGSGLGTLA
T1 sequence (Q15109 23-342 limits assumed): as above

Structure (SMILES) | IC50 [1] | IC50 [2] | concentration at 6 h [3, 4] | concentration at 6 h [3, 5] | Kp at 6 h [3]
CCCCc1nc(-c2ccc(OC[C@H](O)CN(C)C)cc2)cn1-c1ccc(Oc2ccc(Cl)cc2)cc1 [Example 1, (R)-1-(4-{2-butyl-1-[4-(4-chloro-phenoxy)-phenyl]-1H-imidazol-4-yl}-phenoxy)-3-dimethylamino-propan-2-ol dihydrochloride] | 0.85 µM | 0.66 µM | 626 ng/g | 18 ng/mL | 34.1
CCOCc1nc(-c2ccc(OC[C@H](O)CN(CC)CC)cc2)cn1-c1ccc(Oc2ccc(Cl)cc2)cc1 [Example 7, (R)-1-(4-{1-[4-(4-chloro-phenoxy)-phenyl]-2-ethoxymethyl-1H-imidazol-4-yl}-phenoxy)-3-diethylamino-propan-2-ol dihydrochloride] | 1.17 µM | 1.05 µM | 1380 ng/g | 153 ng/mL | 9.1
CCOCc1nc(-c2ccc(OC[C@@H](O)CN(CC)CC)cc2)cn1-c1ccc(Oc2ccc(Cl)cc2)cc1 [Example 8, (S)-1-(4-{1-[4-(4-chloro-phenoxy)-phenyl]-2-ethoxymethyl-1H-imidazol-4-yl}-phenoxy)-3-diethylamino-propan-2-ol dihydrochloride] | 1.26 µM | 0.8 µM | 2700 ng/g | 137 ng/mL | 19.6
CCCCc1nc(-c2ccc(OC[C@H](O)CNC)cc2)cn1-c1ccc(Oc2ccc(Cl)cc2)cc1 [Example 9, (R)-1-(4-{2-butyl-1-[4-(4-chloro-phenoxy)-phenyl]-1H-imidazol-4-yl}-phenoxy)-3-methylamino-propan-2-ol dihydrochloride] | 1.59 µM | 1.13 µM | 537 ng/g | 76 ng/mL | 7.2
CCOCc1nc(-c2ccc(OC[C@H](O)CN(C)C)cc2)cn1-c1ccc(Oc2ccc(Cl)cc2)cc1 [Example 5, (R)-1-(4-{1-[4-(4-chloro-phenoxy)-phenyl]-2-ethoxymethyl-1H-imidazol-4-yl}-phenoxy)-3-dimethylamino-propan-2-ol dihydrochloride] | 1.02 µM | 0.71 µM | 3320 ng/g | 200 ng/mL | 16.7
CCOCc1nc(-c2ccc(OC[C@@H](O)CN(C)C)cc2)cn1-c1ccc(Oc2ccc(Cl)cc2)cc1 [Example 6, (S)-1-(4-{1-[4-(4-chloro-phenoxy)-phenyl]-2-ethoxymethyl-1H-imidazol-4-yl}-phenoxy)-3-dimethylamino-propan-2-ol dihydrochloride] | 0.78 µM | 0.77 µM | 3900 ng/g | 155 ng/mL | 25.3
CCCCc1nc(-c2ccc(OC[C@@H](O)CN(CC)CC)cc2)cn1-c1ccc(Oc2ccc(Cl)cc2)cc1 [Example 4, (S)-1-(4-{2-butyl-1-[4-(4-chloro-phenoxy)-phenyl]-1H-imidazol-4-yl}-phenoxy)-3-diethylamino-propan-2-ol dihydrochloride] | 0.65 µM | 0.54 µM | 610 ng/g | 74 ng/mL | 8.8
CCCCc1nc(-c2ccc(OC[C@H](O)CNCC)cc2)cn1-c1ccc(Oc2ccc(Cl)cc2)cc1 [Example 11, (R)-1-(4-{2-butyl-1-[4-(4-chloro-phenoxy)-phenyl]-1H-imidazol-4-yl}-phenoxy)-3-ethylamino-propan-2-ol dihydrochloride] | 1.02 µM | 0.81 µM | 343 ng/g | 72 ng/mL | 4.8
CCCCc1nc(-c2ccc(OC[C@@H](O)CN(C)C)cc2)cn1-c1ccc(Oc2ccc(Cl)cc2)cc1 [Example 3, (S)-1-(4-{2-butyl-1-[4-(4-chloro-phenoxy)-phenyl]-1H-imidazol-4-yl}-phenoxy)-3-dimethylamino-propan-2-ol dihydrochloride] | 0.8 µM | 0.84 µM | 1120 ng/g | 48 ng/mL | 23.3
CCCCc1nc(-c2ccc(OC[C@H](O)CN(CC)CC)cc2)cn1-c1ccc(Oc2ccc(Cl)cc2)cc1 [Example 2, (R)-1-(4-{2-butyl-1-[4-(4-chloro-phenoxy)-phenyl]-1H-imidazol-4-yl}-phenoxy)-3-diethylamino-propan-2-ol dihydrochloride] | 0.76 µM | 0.55 µM | 718 ng/g | 24 ng/mL | 30.6
CCCCc1nc(-c2ccc(OC[C@@H](O)CNC)cc2)cn1-c1ccc(Oc2ccc(Cl)cc2)cc1 [Example 10, (S)-1-(4-{2-butyl-1-[4-(4-chloro-phenoxy)-phenyl]-1H-imidazol-4-yl}-phenoxy)-3-methylamino-propan-2-ol dihydrochloride] | 1.32 µM | 1.14 µM | 212 ng/g | 74 ng/mL | 2.9

Next, values leading:

IC50 [1] | IC50 [2] | concentration at 6 h [3, 4] | concentration at 6 h [3, 5] | Kp at 6 h [3] | Structure (SMILES)
2.37 µM | 4.56 µM |  |  |  | CCOCc1nc(-c2ccc(OC[C@@H](O)CNC)cc2)cn1-c1ccc(Oc2ccc(Cl)cc2)cc1 [Example 14, (S)-1-(4-{1-[4-(4-chloro-phenoxy)-phenyl]-2-ethoxymethyl-1H-imidazol-4-yl}-phenoxy)-3-methylamino-propan-2-ol dihydrochloride]
1.19 µM | 0.98 µM | 540 ng/g | 124 ng/mL | 4.5 | CCCCc1nc(-c2ccc(OC[C@@H](O)CNCC)cc2)cn1-c1ccc(Oc2ccc(Cl)cc2)cc1 [Example 12, (S)-1-(4-{2-butyl-1-[4-(4-chloro-phenoxy)-phenyl]-1H-imidazol-4-yl}-phenoxy)-3-ethylamino-propan-2-ol dihydrochloride]
2.47 µM | 3.14 µM |  |  |  | CCNC[C@@H](O)COc1ccc(-c2cn(-c3ccc(Oc4ccc(Cl)cc4)cc3)c(COCC)n2)cc1 [Example 15, (R)-1-(4-{1-[4-(4-chloro-phenoxy)-phenyl]-2-ethoxymethyl-1H-imidazol-4-yl}-phenoxy)-3-ethylamino-propan-2-ol dihydrochloride]
1.55 µM | 3.13 µM |  |  |  | CCNC[C@H](O)COc1ccc(-c2cn(-c3ccc(Oc4ccc(Cl)cc4)cc3)c(COCC)n2)cc1 [Example 16, (S)-1-(4-{1-[4-(4-chloro-phenoxy)-phenyl]-2-ethoxymethyl-1H-imidazol-4-yl}-phenoxy)-3-ethylamino-propan-2-ol dihydrochloride]
2.16 µM | 4.61 µM |  |  |  | CCOCc1nc(-c2ccc(OC[C@H](O)CNC)cc2)cn1-c1ccc(Oc2ccc(Cl)cc2)cc1 [Example 13, (R)-1-(4-{1-[4-(4-chloro-phenoxy)-phenyl]-2-ethoxymethyl-1H-imidazol-4-yl}-phenoxy)-3-methylamino-propan-2-ol dihydrochloride]
